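These data come from cells grown in 96-well plates and exposed to compound for 48 hours at five concentrations. The concentration for 50% growth inhibition is given as GI50. TGI denotes the concentration required for complete inhibition of growth.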
Key:
Test in all cases: inhibition of tumour cell growth, NCI panel, 48 h
786-0 renal = system: 786-0 renal
A498 renal = system: A498 renal
A549 NSCLC = system: A549 NSCLC
ACHN renal = system: ACHN renal
BT-549 breast = system: BT-549 breast
CAKI-1 renal = system: CAKI-1 renal
CCRF-CEM leukemia = system: CCRF-CEM leukemia
COLO 205 colon = system: COLO 205 colon
DU-145 prostate = system: DU-145 prostate
EKVX NSCLC = system: EKVX NSCLC
HCC-2998 colon = system: HCC-2998 colon
HCT-116 colon = system: HCT-116 colon
HCT-15 colon = system: HCT-15 colon
HL-60(TB) leukemia = system: HL-60(TB) leukemia
HOP-62 NSCLC = system: HOP-62 NSCLC
HOP-92 NSCLC = system: HOP-92 NSCLC
HS 578T breast = system: HS 578T breast
HT29 colon = system: HT29 colon
IGROV1 ovarian = system: IGROV1 ovarian
K-562 leukemia = system: K-562 leukemia
KM12 colon = system: KM12 colon
LOX IMVI melanoma = system: LOX IMVI melanoma
M14 melanoma = system: M14 melanoma
MALME-3M melanoma = system: MALME-3M melanoma
MCF7 breast = system: MCF7 breast
MDA-MB-231 breast = system: MDA-MB-231 breast
MDA-MB-435 = system: MDA-MB-435
MOLT-4 leukemia = system: MOLT-4 leukemia
NCI-H226 lung = system: NCI-H226 lung
NCI-H23 lung = system: NCI-H23 lung
NCI-H460 lung = system: NCI-H460 lung
NCI-H522 lung = system: NCI-H522 lung
NCI/ADR-RES ovarian = system: NCI/ADR-RES ovarian
OVCAR-3 ovarian = system: OVCAR-3 ovarian
OVCAR-4 ovarian = system: OVCAR-4 ovarian
OVCAR-8 ovarian = system: OVCAR-8 ovarian
PC-3 prostate = system: PC-3 prostate
RPMI-8226 leukemia = system: RPMI-8226 leukemia
RXF 393 renal = system: RXF 393 renal
SF-268 CNS = system: SF-268 CNS
SF-295 CNS = system: SF-295 CNS
SF-539 CNS = system: SF-539 CNS
SK-MEL-2 melanoma = system: SK-MEL-2 melanoma
SK-MEL-28 melanoma = system: SK-MEL-28 melanoma
SK-MEL-5 melanoma = system: SK-MEL-5 melanoma
SK-OV-3 ovarian = system: SK-OV-3 ovarian
SN12C renal = system: SN12C renal
SNB-19 CNS = system: SNB-19 CNS
SNB-75 CNS = system: SNB-75 CNS
SR leukemia = system: SR leukemia
T-47D breast = system: T-47D breast
TK-10 renal = system: TK-10 renal
U251 CNS = system: U251 CNS
UACC-257 melanoma = system: UACC-257 melanoma
UACC-62 melanoma = system: UACC-62 melanoma
UO-31 renal = system: UO-31 renal

Which GI50 (786-0 renal) does the source give for `COc1ccc(C(O)c2cc3c(N)c(C(=O)Nc4cccc(OC)c4)sc3nc2C)cc1` (configuration not stated) here?
The GI50 was 1140 nM.

And the TGI (786-0 renal)?
Its TGI is 2790 nM.

And the GI50 (A498 renal)?
Its GI50 is over 50000 nM.

And the TGI (A498 renal)?
Its TGI is over 50000 nM.

What about the GI50 (A549 NSCLC) of the same compound?
The GI50 was 5460 nM.

And the TGI (A549 NSCLC)?
Its TGI is over 50000 nM.

What about the GI50 (ACHN renal) of the same compound?
Its GI50 is 1210 nM.

What about the TGI (ACHN renal) of the same compound?
Its TGI is 3150 nM.

And the GI50 (BT-549 breast)?
Its GI50 is 1230 nM.

And the TGI (BT-549 breast)?
The TGI was 3220 nM.

What about the GI50 (CAKI-1 renal) of the same compound?
Its GI50 is 1530 nM.

What about the TGI (CAKI-1 renal) of the same compound?
Its TGI is 5270 nM.

And the GI50 (CCRF-CEM leukemia)?
Its GI50 is 1310 nM.

What about the TGI (CCRF-CEM leukemia) of the same compound?
Its TGI is 4640 nM.

What about the GI50 (COLO 205 colon) of the same compound?
Its GI50 is 1750 nM.

What about the TGI (COLO 205 colon) of the same compound?
The TGI was over 50000 nM.

What about the GI50 (DU-145 prostate) of the same compound?
The GI50 was 2070 nM.

And the TGI (DU-145 prostate)?
The TGI was over 50000 nM.

And the GI50 (EKVX NSCLC)?
Its GI50 is 1600 nM.

What about the TGI (EKVX NSCLC) of the same compound?
The TGI was over 50000 nM.

And the GI50 (HCC-2998 colon)?
The GI50 was 871 nM.

What about the TGI (HCC-2998 colon) of the same compound?
Its TGI is 1630 nM.

What about the GI50 (HCT-116 colon) of the same compound?
The GI50 was 242 nM.

What about the TGI (HCT-116 colon) of the same compound?
The TGI was 953 nM.

What about the GI50 (HCT-15 colon) of the same compound?
Its GI50 is 1000 nM.

And the TGI (HCT-15 colon)?
The TGI was 2510 nM.

What about the GI50 (HL-60(TB) leukemia) of the same compound?
The GI50 was 1350 nM.

What about the TGI (HL-60(TB) leukemia) of the same compound?
The TGI was over 50000 nM.

What about the GI50 (HOP-62 NSCLC) of the same compound?
Its GI50 is 1940 nM.

What about the TGI (HOP-62 NSCLC) of the same compound?
Its TGI is over 50000 nM.

What about the GI50 (HOP-92 NSCLC) of the same compound?
The GI50 was over 50000 nM.

And the TGI (HOP-92 NSCLC)?
The TGI was over 50000 nM.

What about the GI50 (HS 578T breast) of the same compound?
Its GI50 is 1650 nM.

What about the TGI (HS 578T breast) of the same compound?
Its TGI is 4670 nM.

What about the GI50 (HT29 colon) of the same compound?
The GI50 was 1360 nM.

And the TGI (HT29 colon)?
Its TGI is 3700 nM.

And the GI50 (IGROV1 ovarian)?
The GI50 was 1170 nM.

What about the TGI (IGROV1 ovarian) of the same compound?
Its TGI is 3460 nM.

And the GI50 (K-562 leukemia)?
The GI50 was 1200 nM.

What about the TGI (K-562 leukemia) of the same compound?
The TGI was 7200 nM.

What about the GI50 (KM12 colon) of the same compound?
Its GI50 is 1030 nM.

And the TGI (KM12 colon)?
Its TGI is 2410 nM.

And the GI50 (LOX IMVI melanoma)?
The GI50 was 879 nM.

And the TGI (LOX IMVI melanoma)?
Its TGI is 1640 nM.

What about the GI50 (M14 melanoma) of the same compound?
The GI50 was 1280 nM.

What about the TGI (M14 melanoma) of the same compound?
The TGI was 4650 nM.

What about the GI50 (MALME-3M melanoma) of the same compound?
The GI50 was 1910 nM.

What about the TGI (MALME-3M melanoma) of the same compound?
Its TGI is 28900 nM.

And the GI50 (MCF7 breast)?
Its GI50 is 289 nM.

And the TGI (MCF7 breast)?
The TGI was over 50000 nM.

And the GI50 (MDA-MB-231 breast)?
The GI50 was 1390 nM.

And the TGI (MDA-MB-231 breast)?
The TGI was 3970 nM.

What about the GI50 (MDA-MB-435) of the same compound?
The GI50 was 1110 nM.

What about the TGI (MDA-MB-435) of the same compound?
Its TGI is 2180 nM.

What about the GI50 (MOLT-4 leukemia) of the same compound?
The GI50 was 1430 nM.

What about the TGI (MOLT-4 leukemia) of the same compound?
Its TGI is 4590 nM.

What about the GI50 (NCI-H226 lung) of the same compound?
The GI50 was 4010 nM.

And the TGI (NCI-H226 lung)?
The TGI was 36800 nM.

And the GI50 (NCI-H23 lung)?
Its GI50 is 1200 nM.

What about the TGI (NCI-H23 lung) of the same compound?
Its TGI is 3290 nM.

What about the GI50 (NCI-H460 lung) of the same compound?
The GI50 was 1970 nM.

What about the TGI (NCI-H460 lung) of the same compound?
The TGI was over 50000 nM.

What about the GI50 (NCI-H522 lung) of the same compound?
Its GI50 is 1430 nM.

And the TGI (NCI-H522 lung)?
Its TGI is 4940 nM.

And the GI50 (NCI/ADR-RES ovarian)?
The GI50 was 1380 nM.

What about the TGI (NCI/ADR-RES ovarian) of the same compound?
The TGI was 3960 nM.

What about the GI50 (OVCAR-3 ovarian) of the same compound?
The GI50 was 1260 nM.

What about the TGI (OVCAR-3 ovarian) of the same compound?
The TGI was 3230 nM.

What about the GI50 (OVCAR-4 ovarian) of the same compound?
The GI50 was 2170 nM.

What about the TGI (OVCAR-4 ovarian) of the same compound?
The TGI was over 50000 nM.

And the GI50 (OVCAR-8 ovarian)?
The GI50 was 1570 nM.

What about the TGI (OVCAR-8 ovarian) of the same compound?
The TGI was over 50000 nM.

What about the GI50 (PC-3 prostate) of the same compound?
Its GI50 is 1150 nM.

What about the TGI (PC-3 prostate) of the same compound?
The TGI was 3040 nM.

What about the GI50 (RPMI-8226 leukemia) of the same compound?
Its GI50 is 174 nM.

And the TGI (RPMI-8226 leukemia)?
Its TGI is 809 nM.

And the GI50 (RXF 393 renal)?
Its GI50 is 1010 nM.

What about the TGI (RXF 393 renal) of the same compound?
The TGI was 2310 nM.

What about the GI50 (SF-268 CNS) of the same compound?
The GI50 was 1770 nM.

What about the TGI (SF-268 CNS) of the same compound?
Its TGI is 37900 nM.

What about the GI50 (SF-295 CNS) of the same compound?
Its GI50 is 1420 nM.

What about the TGI (SF-295 CNS) of the same compound?
The TGI was 4500 nM.

And the GI50 (SF-539 CNS)?
Its GI50 is 1260 nM.

What about the TGI (SF-539 CNS) of the same compound?
Its TGI is 3030 nM.

What about the GI50 (SK-MEL-2 melanoma) of the same compound?
The GI50 was 49800 nM.

And the TGI (SK-MEL-2 melanoma)?
The TGI was over 50000 nM.

What about the GI50 (SK-MEL-28 melanoma) of the same compound?
Its GI50 is 1580 nM.

What about the TGI (SK-MEL-28 melanoma) of the same compound?
The TGI was 4940 nM.

And the GI50 (SK-MEL-5 melanoma)?
Its GI50 is 1690 nM.

What about the TGI (SK-MEL-5 melanoma) of the same compound?
Its TGI is 5420 nM.

What about the GI50 (SK-OV-3 ovarian) of the same compound?
Its GI50 is 11500 nM.

And the TGI (SK-OV-3 ovarian)?
The TGI was over 50000 nM.

And the GI50 (SN12C renal)?
The GI50 was 1240 nM.

What about the TGI (SN12C renal) of the same compound?
Its TGI is 3380 nM.

What about the GI50 (SNB-19 CNS) of the same compound?
Its GI50 is 1990 nM.

What about the TGI (SNB-19 CNS) of the same compound?
Its TGI is over 50000 nM.

And the GI50 (SNB-75 CNS)?
Its GI50 is 12200 nM.

What about the TGI (SNB-75 CNS) of the same compound?
The TGI was over 50000 nM.

What about the GI50 (SR leukemia) of the same compound?
Its GI50 is 301 nM.

And the TGI (SR leukemia)?
The TGI was 7510 nM.

And the GI50 (T-47D breast)?
The GI50 was 3830 nM.

What about the TGI (T-47D breast) of the same compound?
The TGI was over 50000 nM.

And the GI50 (TK-10 renal)?
Its GI50 is 5990 nM.

And the TGI (TK-10 renal)?
The TGI was over 50000 nM.

What about the GI50 (U251 CNS) of the same compound?
The GI50 was 1340 nM.

And the TGI (U251 CNS)?
The TGI was 7370 nM.

And the GI50 (UACC-257 melanoma)?
The GI50 was 1740 nM.

What about the TGI (UACC-257 melanoma) of the same compound?
The TGI was over 50000 nM.

What about the GI50 (UACC-62 melanoma) of the same compound?
Its GI50 is 1160 nM.

What about the TGI (UACC-62 melanoma) of the same compound?
Its TGI is 3070 nM.

What about the GI50 (UO-31 renal) of the same compound?
Its GI50 is 838 nM.

And the TGI (UO-31 renal)?
The TGI was 1720 nM.

— PubChem BioAssay (NCI)
